{"source": "patent US20030176314A1", "about": "“Compounds for the treatment of pain” (priority 2001, published 2003)", "target": "T1, human α1D adrenergic receptor (Homo sapiens, UniProt P25100)", "T1 construct": "host or cells: LM(tk-) cells, line L-α1A", "T1 sequence (P25100 1-572)": "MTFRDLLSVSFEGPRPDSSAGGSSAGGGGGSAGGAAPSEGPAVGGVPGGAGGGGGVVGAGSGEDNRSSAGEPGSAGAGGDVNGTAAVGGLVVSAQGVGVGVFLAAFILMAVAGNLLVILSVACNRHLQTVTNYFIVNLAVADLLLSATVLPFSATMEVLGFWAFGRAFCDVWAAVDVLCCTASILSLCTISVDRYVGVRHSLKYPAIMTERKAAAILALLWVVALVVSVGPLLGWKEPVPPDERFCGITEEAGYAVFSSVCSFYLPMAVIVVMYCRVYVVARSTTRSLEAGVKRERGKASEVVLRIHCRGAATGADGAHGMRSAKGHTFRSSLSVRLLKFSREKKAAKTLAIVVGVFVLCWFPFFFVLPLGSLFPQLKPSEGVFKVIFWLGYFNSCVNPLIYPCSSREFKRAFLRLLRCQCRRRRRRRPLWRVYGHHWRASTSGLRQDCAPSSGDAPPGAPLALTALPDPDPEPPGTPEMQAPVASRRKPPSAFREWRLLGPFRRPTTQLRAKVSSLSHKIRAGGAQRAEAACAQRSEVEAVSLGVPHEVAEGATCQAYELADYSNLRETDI", "assay": "Binding at human α1D adrenergic receptor", "settings": "Table 8; read-out: hα1D Ki", "source_text": "α1 Human Adrenergic Receptors: To determine the binding of compounds to human α1 receptors, LM(tk−) cell lines stably transfected with the genes encoding the α1a, α1b, and α1d receptors were used. The nomenclature describing the α1 receptors was changed recently, such that the receptor formerly designated α1a is now designated α1d, and the receptor formerly designated α1c is now designated α1a. The cell lines expressing these receptors were deposited with the ATCC before the nomenclature change and reflect the subtype designations formerly assigned to these receptors. Thus, the cell line expressing the receptor described herein as the α1a receptor was deposited with the ATCC on Sep. […] The cell line expressing receptor described herein as the α1d receptor was deposited with the ATCC on Sep. […] The cell line expressing the α1b receptor is designated L-α1B, and was deposited on Sep.\nThe binding affinity (Ki) of these compounds were tested according to the protocols described herein at the following receptors; human α1A, α1B, α1D, α2A, α2B, and α2C adrenergic receptors; human Y1, Y2, Y4, and Y5 receptors; and N-Methyl-D-aspartic acid (NMDA) receptor channels. The binding interactions of these compounds were additionally tested at the norepinephrine (NE) transporter (NE uptake) and serotonin (5-hydroxytryptamine (5HT)) transporter (5HT uptake) according to protocols described herein", "note": "pKi: −log10 of the molar value.", "data": [{"smiles": "Cc1nc(NC(=N)N)nc2ccc3ccccc3c12", "note": "[Compound 1007A]", "values": [{"measurement": "pKi", "value": 5.07}]}]}
